Test results: patent US5630978A, “Preparation of biologically active molecules by molecular imprinting” (Yissum Research Development Co. of The Hebrew University of …, priority 1995, dated 1997)

System: extracellular matrix (ECM) bound FGF
Test: Release of extracellular matrix (ECM) bound FGF
Assay type: biochemical
Description: The polymers were tested according to the method of Vlodavsky [Vlodavsky, I., Bar-Shavit, R., Korner, G., and Foks, Z., Extracellular matrix-bound growth factors, enzymes, and plasma proteins, in Molecular and cellular aspects of basement membrane, Academic Press, 327-343 (1993)]. Release of ECM bound bFGF was low (15%) at the concentration range between 1 and 25 mg/ml for N-acryl-4-hydroxyproline based polymers. Under the same conditions, heparin released about 80% of the ECM bound bFGF at a concentration of 2 to 25 mg/ml.

heparin
released extracellular matrix (ECM) bound FGF: 80%
Release of ECM bound bFGF (concentration of 2 to 25 mg/ml): about 80%
